Experimental data reported in US20230357320A1, “HELICAL STAPLED PEPTIDES AND USES THEREOF” (FOG PHARMACEUTICALS, INC., priority 2020, published 2023).
Where two headings read alike, the source gives them in different places. Starred links: 1 amine or outer side, 2 acyl side, 3 side chain; linkers in the order of their positions; H or OH if unused. Positions of bridges follow the written chain, without caps; N, C: chain ends. Non-standard residues stand in square brackets, D forms with d. Residues, ends and D or L forms follow the SMILES beside them. Primed or numbered codes have the meaning given here. *: point of attachment. PL3 = (R)-N-acetyl-2-(2'-propenyl)proline (alpha-allyl proline), stapling residue, C=CC[C@@]1(C(=O)*)CCCN1C(C)=O; PL3″ = (R)-2-(2'-propenyl)proline (alpha-allyl proline), N-acetylated, C=CC[C@@]1(C(=O)*)CCCN1C(C)=O; X1 = O=C([C@]1(CC=[*:3])CCCN1[*:1])[*:2]; Ala(cPr) = N[C@@H](CC1CC1)C(=O)O; S5 = C=CCCC[C@](C)(N)C(=O)O

Key:
[1] = target: T1, ERβ LBD (Homo sapiens, UniProt Q92731); assay: Competition fluorescence polarization (FP) binding assay with FITC-ERL4 probe; details: read-out: EC50
T1 construct: pET28a+ vector containing ERβ LBD (residues from 261 to 500) along with an N-terminal His6-yBBr-TEV tag; His6 (N); yBBr (N); TEV cleavage site (N); made in house; host or cells: E. coli BL21(DE3) pLysS
Protocol: In addition to the PAMPA assay, to study the affinity of the first-generation ProLock™ stapled peptides to the Estrogen receptor p ligand-binding domain (ERβ LBD), a fluorescence polarization (FP) binding assay in competition format was used in the presence of the endogenous ERβ LBD ligand estradiol. Competition Fluorescence Polarization (FP) assay was performed on the peptides to determine their half-maximal effective concentration (EC50). To do this, FITC labeled ERL4 peptide (FITC-βAla-His-Pro-Leu-Leu-Nle-Arg-Leu-Leu-Leu-Ser-Pro-CONH2) was synthesized to be used as a fluorescence probe based on existing literature (Fuchs et al., Journal of the American Chemical Society 2013, 135 (11), 4364-4371). Direct FP was performed in black 384-well plates (Corning). The final volume of each assay well was 40 μL with constant concentration of FITC labeled ERL4 peptide (10 nM) and variable concentrations of ERβ LBD protein.
ERβ LBD expression and purification was performed as follows. BL21(DE3) pLysS E. coli cells were transformed with a pET28a+ vector containing ERβ LBD (residues from 261 to 500) along with an N-terminal His6-yBBr-TEV tag. An overnight culture in 10 mL of TB media containing 50 μg/mL kanamycin was prepared from a single bacterial colony. The overnight culture was subsequently added to 1 liter of autoclaved TB media containing 50 μg/mL kanamycin and shaken at 37° C. until an OD of 0.6-0.8 was reached. IPTG was added to the culture and left shaking for 6 hours. Bacterial culture was pelleted and resuspended in lysis buffer. Resuspended bacterial culture was incubated at 0° C. for 10 minutes before sonication at 65% amplitude with 10-sec cycles using a Branson Sonifier. The lysate was then cleared by centrifugation at 8000×g for 20 min. […] The expected molecular weight of the ERβ LBD protein is 30.8 KDa, which molecular weight was confirmed by SDS PAGE analysis. Purified ERβ LBD was concentrated to 90 μM and was stored at −80° C. buffer.
Competition FP assays were also employed. These were performed in black 384-well plates (Corning). The final volume of each assay well was 80 μL containing constant concentrations of estradiol (1 μM) and FITC labeled ERL4 (10 nM). The ERβ LBD concentration was held constant (200 nM) while varying the concentration of ProLock stapled peptides (3-fold dilution from 10 μM). Upon addition of samples to each well, the plate was centrifuged for 10 seconds at 3000 rpm and incubated at 4° C. for 1 hour. FP measurements were performed at room temperature with excitation and emission wavelengths at 485 and 535 nm using a Clariostar microplate reader (BMG Labtech). Each plate had high and low polarization samples, which are used to normalize the assay data. The competition FP results were analyzed by Prism 7 (GraphPad). The non-linear regression analysis of the data was used to determine the half-maximal effective concentration (EC50) of ProLock stapled peptides. […] The normalized FP values shown in FIG. 6 are mean±S.E.M of at least four independent replicates.

[2] = in vitro; set-up: dose or concentration left out as unconfirmed; details: PAMPA, pH 7.4, PAMPA Pe
[3] = CHI Log D measurement (chromatographic hydrophobicity index); details: reverse-phase HPLC, Phenomenex Gemini C-18 column, pH 7.4
Protocol: Finally, to measure hydrophobicity, a CHI Log D measurement assay was employed. […] The retention time measurements were performed using reverse-phase HPLC and Q-Exactive mass spectrometer with Phenomenex Gemini C-18 column (3 uM, 50×3 mm). The reverse-phase chromatography was performed using a gradient of 10 mM ammonium acetate at pH=7.4 and acetonitrile solvents. Using the identical solvent setup, gradient, and flowrate, ProLock stapled peptides were injected onto the column to determine the tR of peptides. Using the calibration curve shown in FIG. 7, tR is converted into CHI. CHI was converted into CHI Log D using the following equation.

[4] = for % Retention: PAMPA
[5] = target: T2, Estrogen receptor β ligand-binding domain (ERβ LBD), residues 261 to 500, with N-terminal His6-yBBr-TEV tag (UniProt Q92731 261-500); assay: competition fluorescence polarization against FITC-ERL4 probe, 200 nM ERβ LBD, 1 µM estradiol
T2 construct: range 261-500; Expressed in E. coli BL21(DE3) pLysS from pET28a+, purified by Ni-NTA and SEC; Assays were run in the presence of estradiol; also called ER LBD; not shown: N-terminal His6-yBBr-TEV tag
T2 sequence (Q92731 261-500): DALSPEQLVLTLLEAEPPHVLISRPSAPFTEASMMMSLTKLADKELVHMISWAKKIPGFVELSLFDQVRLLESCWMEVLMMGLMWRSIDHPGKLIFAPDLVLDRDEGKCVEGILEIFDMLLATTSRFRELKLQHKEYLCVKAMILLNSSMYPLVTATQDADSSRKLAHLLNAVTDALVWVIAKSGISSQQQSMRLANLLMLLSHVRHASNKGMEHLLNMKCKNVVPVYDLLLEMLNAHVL

[6] = target: T2, Estrogen receptor β ligand-binding …; assay: competition fluorescence polarization; 200 nM ERβ LBD, 10 nM FITC-ERL4 probe, 1 µM estradiol
Protocol: Competition FP assays were also employed. These were performed in black 384-well plates (Corning). The final volume of each assay well was 80 μL containing constant concentrations of estradiol (1 μM) and FITC labeled ERL4 (10 nM). […] Upon addition of samples to each well, the plate was centrifuged for 10 seconds at 3000 rpm and incubated at 4° C. for 1 hour. […] Each plate had high and low polarization samples, which are used to normalize the assay data. The competition FP results were analyzed by Prism 7 (GraphPad).

[7] = Table 4, binding to ER LBD, estradiol 1 μM, FITC-ERL4 10 nM, ERβ LBD 200 nM, mean ± S.E.M, at least four replicates
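Throughout, for % Retention: Phospholipid-membrane PAMPA, donor and acceptor in DPBS pH 7.4 with 5% DMSO, 37 °C for 5 h, compound in each well quantified by reverse-phase HPLC-MS.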
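Throughout, for PAMPA Pe (text): Phospholipid-membrane PAMPA, donor and acceptor in DPBS pH 7.4 with 5% DMSO, 37 °C for 5 h, compound in each well quantified by reverse-phase HPLC-MS.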
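Throughout, for PAMPA Pe: Phospholipid-membrane PAMPA, donor and acceptor in DPBS pH 7.4 with 5% DMSO, 37 °C for 5 h, compound in each well quantified by reverse-phase HPLC-MS.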
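Throughout, for Papp: Phospholipid-membrane PAMPA, donor and acceptor in DPBS pH 7.4 with 5% DMSO, 37 °C for 5 h, compound in each well quantified by reverse-phase HPLC-MS.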

With `CC[C@H](C)[C@@H]1NC(=O)[C@]2(CC=CCCC[C@@](C)(C(=O)N[C@@H](Cc3ccc(O)cc3)C(=O)N[C@@H](CC(C)C)C(=O)N[C@@H](CC(C)C)C(=O)N[C@@H](CC(=O)O)C(=O)NC)NC(=O)[C@H](CC(C)C)NC1=O)CCCN2C(C)=O` [PLL5-4, Ac-PL3-Ile-Leu-S5-Tyr-Leu-Leu-Asp-NHMe] (Ac-[X1]IL[S5]YLLD-NHMe; staple 1-4) the EC50 [1, 7] was 1.3 ± 0.1 µM, the Papp at 5 h [2] was 0.3 ± 0.1 ×10⁻⁶ cm/s and the chromatographic logD [3] was 2.4. For the same molecule, the “% Retention” value [4] was 100 ± 1%.

For `CNC(=O)[C@H](CC(=O)O)NC(=O)[C@H](CC(C)C)NC(=O)[C@H](CC(C)C)NC(=O)[C@H](CCCNC(=N)N)NC(=O)[C@]1(C)CCCC=CC[C@]2(CCCN2C(C)=O)C(=O)N[C@@H](CC(C)C)C(=O)N[C@@H](CC(C)C)C(=O)N1` [PLL5-8, Ac-PL3-Leu-Leu-S5-Arg-Leu-Leu-Asp-NHMe] (Ac-[X1]LL[S5]RLLD-NHMe; staple 1-4), the EC50 [1, 7] was 7.9 ± 0.4 µM, the Papp at 5 h [2] was 0.9 ± 0.2 ×10⁻⁶ cm/s and the chromatographic logD [3] was 2.1. For the same molecule, the “% Retention” value [4] was 104 ± 3%.

`CNC(=O)[C@@H](NC(=O)[C@H](CC(C)C)NC(=O)[C@H](CC(C)C)NC(=O)[C@H](Cc1ccc(O)cc1)NC(=O)[C@]1(C)CCCC=CC[C@]2(CCCN2C(C)=O)C(=O)N[C@@H](CC(C)C)C(=O)N[C@@H](CC(C)C)C(=O)N1)[C@@H](C)O` [PLL5-10, Ac-PL3-Leu-Leu-S5-Tyr-Leu-Leu-Thr-NHMe] (Ac-[X1]LL[S5]YLLT-NHMe; staple 1-4) showed an EC50 [1, 7] of 1.5 ± 0.2 µM, a Papp at 5 h [2] of no more than 0.1 ×10⁻⁶ cm/s and a chromatographic logD [3] of 3.8. The “% Retention” value [4] was 34 ± 0%.

`CNC(=O)[C@H](CC(=O)O)NC(=O)[C@H](CCC(N)=O)NC(=O)[C@H](CC(C)C)NC(=O)[C@H](CC(C)C)NC(=O)[C@H](CCCNC(=N)N)NC(=O)[C@]1(C)CCCC=CC[C@]2(CCCN2C(C)=O)C(=O)N[C@@H](CC2CC2)C(=O)N[C@@H](CC(C)C)C(=O)N1` [PLL7-5, Ac-PL3-Cpa-Leu-S5-Arg-Leu-Leu-Gln-Asp-NHMe] (Ac-[X1][Ala(cPr)]L[S5]RLLQD-NHMe; staple 1-4) gave an EC50 [1, 7] of 4.1 ± 0.3 µM, a Papp at 5 h [2] of 0.8 ± 0.2 ×10⁻⁶ cm/s and a chromatographic logD [3] of 2. The “% Retention” value [4] was 109 ± 2%.

`CNC(=O)[C@H](CC(=O)O)NC(=O)[C@H](CCC(N)=O)NC(=O)[C@H](CC(C)C)NC(=O)[C@H](CC(C)C)NC(=O)[C@H](Cc1ccc(O)cc1)NC(=O)[C@]1(C)CCCC=CC[C@]2(CCCN2C(C)=O)C(=O)N[C@@H](CC2CC2)C(=O)N[C@@H](CC(C)C)C(=O)N1` [PLL7-7, Ac-PL3-Cpa-Leu-S5-Tyr-Leu-Leu-Gln-Asp-NHMe] (Ac-[X1][Ala(cPr)]L[S5]YLLQD-NHMe; staple 1-4) showed an EC50 [1, 7] of 0.9 ± 0.1 µM, an EC50 ([1]; binding towards the ERβ LBD) of 0.8 to 1.3 µM and a Papp at 5 h [2] of 1 ± 0.1 ×10⁻⁶ cm/s. For the same molecule, the chromatographic logD [3] was 2, the “PAMPA Pe” value [4] was 1.0 ± 0.1 (×10^−6) cm/sec and the “PAMPA Pe (text)” value [4] was “exceeding 1 ×10^−6 cm/sec”. The “% Retention” value [4] was 108 ± 3%.

In the case of `CNC(=O)[C@H](CC(=O)O)NC(=O)[C@H](Cc1c[nH]cn1)NC(=O)[C@H](CC(C)C)NC(=O)[C@H](CC(C)C)NC(=O)[C@H](CCCNC(=N)N)NC(=O)[C@]1(C)CCCC=CC[C@]2(CCCN2C(C)=O)C(=O)N[C@@H](CC(C)C)C(=O)N[C@@H](CC(C)C)C(=O)N1` [PLL7-9, Ac-PL3-Leu-Leu-S5-Arg-Leu-Leu-His-Asp-NHMe] (Ac-[X1]LL[S5]RLLHD-NHMe; staple 1-4), the EC50 [1, 7] is reported as 1.3 ± 0.1 µM, the EC50 ([1]; binding towards the ERβ LBD) is reported as 0.8 to 1.3 µM and the Papp at 5 h [2] is reported as 1.1 ± 0.2 ×10⁻⁶ cm/s. For the same molecule, the chromatographic logD [3] was 2.1, the “PAMPA Pe” value [4] was 1.1 ± 0.2 (×10^−6) cm/sec and the “PAMPA Pe (text)” value [4] was “exceeding 1 ×10^−6 cm/sec”. For the same molecule, the “% Retention” value [4] was 85 ± 4%.

In the case of `CNC(=O)[C@@H](NC(=O)[C@H](CC(C)C)NC(=O)[C@H](CC(C)C)NC(=O)[C@H](CC1CC1)NC(=O)[C@]1(C)CCCC=CC[C@]2(CCCN2C(C)=O)C(=O)N[C@@H]([C@@H](C)O)C(=O)N[C@@H](CC(C)C)C(=O)N1)[C@@H](C)O` [PLL7-23, Ac-PL3-Thr-Leu-S5-Cpa-Leu-Leu-Thr-NHMe] (Ac-[X1]TL[S5][Ala(cPr)]LLT-NHMe; staple 1-4), the EC50 [1, 7] is reported as 2.4 ± 0.1 µM, the Papp at 5 h [2] is reported as less than 0.1 ×10⁻⁶ cm/s and the chromatographic logD [3] is reported as 3.2. For the same molecule, the “% Retention” value [4] was 92 ± 2%.

B1: PLL7-20 (Ac-PL3-Ala-Leu-S5-His-Leu-Leu-Asn-NHMe) (peptide)
peptide: Ac-[PL3]AL[S5]HLLN-NHMe
modifications: staple 1-4; also: staple isomer 2, cis olefin
notes: Second-generation ProLock stapled peptide; X marks non-standard residues
B1: no binding (tested: peptide titrated 3-fold from 10 µM) [5].

B2: PLL5-5 (Ac-PL3-Thr-Leu-S5-Tyr-Leu-Leu-Asp-NHMe) (peptide)
peptide: Ac-[PL3]TL[S5]YLLD-NHMe
modifications: staple 1-4; also: staple isomer 2, cis olefin
notes: as for B1
B2: no binding (tested: peptide titrated 3-fold from 10 µM) [5].

B3: PLL5-6 (Ac-PL3-Lys-Leu-S5-Tyr-Leu-Leu-Asp-NHMe) (peptide)
peptide: Ac-[PL3]KL[S5]YLLD-NHMe
modifications: staple 1-4; also: staple isomer 2, cis olefin
notes: as for B1
B3: no binding (tested: peptide titrated 3-fold from 10 µM) [5].

B4: PLL5-11 (Ac-PL3-Leu-Leu-S5-Tyr-Leu-Leu-His-NHMe) (peptide)
peptide: Ac-[PL3]LL[S5]YLLH-NHMe
modifications: staple 1-4; also: staple isomer 2, cis olefin
notes: as for B1
B4: no binding (tested: peptide titrated 3-fold from 10 µM) [5].

B5: PLL5-12 (Ac-PL3-Leu-Leu-S5-Tyr-Leu-Leu-Gln-NHMe) (peptide)
peptide: Ac-[PL3]LL[S5]YLLQ-NHMe
modifications: staple 1-4; also: staple isomer 2, cis olefin
notes: as for B1
B5 gave an EC50 [6] of 2 µM.

B6: PLL7-8 (Ac-PL3-Ala-Leu-S5-Tyr-Leu-Leu-Gln-Asp-NHMe) (peptide)
peptide: Ac-[PL3]AL[S5]YLLQD-NHMe
modifications: staple 1-4; also: staple isomer 2, cis olefin
notes: as for B1
B6: no binding (tested: peptide titrated 3-fold from 10 µM) [5].

B7: PLL5-1 (Ac-PL3-Leu-Leu-S5-Tyr-Leu-Leu-Asp-Tyr-NHMe) (peptide)
peptide: Ac-[PL3″]LL[S5]YLLDY-NHMe
modifications: staple 1-4; also: staple isomer 2, cis olefin
notes: as for B1
B7 gave an EC50 [6] of 3.9 µM.

B8: PLL5-3 (Ac-PL3-Leu-Leu-S5-Tyr-Leu-Leu-Gln-Tyr-NHMe) (peptide)
peptide: Ac-[PL3]LL[S5]YLLQY-NHMe
modifications: staple 1-4; also: staple isomer 2, cis olefin
notes: as for B1
With B8 the EC50 [6] was 0.5 µM.

B9: PLL5-2 (Ac-PL3-Leu-Leu-S5-Tyr-Leu-Leu-Asp-Asp-NHMe) (peptide)
peptide: Ac-[PL3]LL[S5]YLLDD-NHMe
modifications: staple 1-4; also: staple isomer 2, cis olefin
notes: as for B1
B9 showed an EC50 [6] of 1.2 µM.

B10: PLL7-1 (Ac-PL3-Thr-Leu-S5-Tyr-Leu-Leu-Asp-Asp-NHMe) (peptide)
peptide: Ac-[PL3]TL[S5]YLLDD-NHMe
modifications: staple 1-4; also: staple isomer 2, cis olefin
notes: as for B1
B10: no binding (tested: peptide titrated 3-fold from 10 µM) [5].
